Data on 27 compounds can be found in patent publication US10011615B2, “Heterobicyclo-substituted [1,2,4]triazolo[1,5-c]quinazolin-5-amine compounds with A2A anatagonist properties” (Merck Sharp & Dohme Corp., priority 2012, dated 2018).

In general, pEC50 refers to −log10 of the EC50, conventionally taken in molar units. A lower pEC50 goes with a high EC50.

pEC50: −log10 of the molar value. “And” between values parts separate entries of the source, which are not always exact repeats. Equal values may be shown once.

T1 sequence (P29274 whole entry): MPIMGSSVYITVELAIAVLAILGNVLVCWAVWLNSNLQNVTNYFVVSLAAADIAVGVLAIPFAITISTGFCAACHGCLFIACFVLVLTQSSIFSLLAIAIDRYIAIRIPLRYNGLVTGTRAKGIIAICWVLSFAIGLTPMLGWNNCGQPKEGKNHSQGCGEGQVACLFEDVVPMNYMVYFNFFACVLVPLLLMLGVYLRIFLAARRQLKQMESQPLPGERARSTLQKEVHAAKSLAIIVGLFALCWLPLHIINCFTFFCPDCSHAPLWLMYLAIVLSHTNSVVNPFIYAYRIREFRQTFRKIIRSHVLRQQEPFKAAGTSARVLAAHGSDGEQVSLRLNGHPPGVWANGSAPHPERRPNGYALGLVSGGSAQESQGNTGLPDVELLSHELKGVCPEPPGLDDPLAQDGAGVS

This test concerns the target T1, human A2a receptor (Homo sapiens, UniProt P29274).
T1 construct: purchased Perkin-Elmer RBHA2AM400UA; host or cells: HEK293 cell membranes
In words: A2a receptor competition binding assay using Scintillation Proximity technology. The settings on record: membranes from HEK293 cells expressing human A2a receptor; 0.5 nM tritiated radioligand; SPA beads; 1 h room temperature. Here is the method:
Binding affinities of compounds of the invention for the human A2a receptor were determined in a competition binding assay using Scintillation Proximity technology. Thus, 0.3 μg of membranes from HEK293 cells expressing the human A2a receptor were incubated with a compound of the invention at concentrations ranging from 3000 nM to 0.15 nM in a reaction mixture containing also 0.5 nM of a tritiated form of 5-amino-7-[2-phenethyl]-2-(furan-2-yl)-7H-pyrazolo[4,3-e][1,2,4]triazolo[1,5-c]pyrimidine (the tritiated compound) and 100 μg of wheat germ agglutin-coated yttrium silicate SPA beads for one hour at room temperature with agitation. The beads were then allowed to settle to the bottom of the wells for 1 hr, after which the membrane-associated radioactivity was determined by scintillation counting in a TopCount microplate reader. Ki values were determined using the Cheng-Prusoff equation.
Summary of Materials and Methods Used in A2a Activity Determination:
HEK293 cells expressing the human, rat, dog or monkey adenosine 2a receptor (Purchased from Perkin-Elmer # RBHA2AM400UA).
The Tritiated compound was prepared in-house by MRL Radiochemistry according to published methods.
Wheat germ agglutinin-coated yttrium silicate SPA beads (GE Healthcare#RPNQ0023). Dilute to 25 mg/ml in assay buffer.
Assay Buffer was prepared in house: Dulbecco's calcium and magnesium free phosphate buffered saline+10 mM MgCl2
Adenosine deaminase from calf intestine, 10 mg/2 ml (Roche) 10 102 105 001).
A2a antagonist standard (9-chloro-1-(2-furanyl)-[1,2,4]triazolo1,5-c]quinazolin-5-amine from Tocris Bioscience)
Make eight 1:3 serial dilutions in 100% DMSO from a 3 mM compound stock
Transfer 50 nl of compound into a 384-well OptiPlate (Perkin Elmer).
Typically, final concentrations of compound used in the assay ranged from 3000 nM to 0.152 nM.
Dilute a solution of the Tritiated compound to 1.25 nM in assay buffer. This is a 2.5× solution. The final concentration in the assay is 0.5 nM. Calculate the concentration by counting two 5 μl aliquots.
Use 0.25 ug of membrane/well. Dilute membranes to 9.7 μg/ml in assay buffer. Treat with 20 ug/ml adenosine deaminase (ADA) for 15 minutes at room temperature to degrade endogenous adenosine.
Use 100 μg/well wheat germ agglutinin-coated yttrium silicate SPA beads.
Mix ADA-treated membranes and SPA beads together for 30 min prior to assay.
To the Perkin-Elmer Optiplate-384 containing the compound titration add 20 μl of 2.5× solution of the Tritiated compound and 30 μl of the membrane-bead mixture. Incubate for one hour at room temperature with agitation.
Include total binding (assay buffer+1% DMSO) and non-specific binding (CGS15943, 1 μM) wells.
Allow the beads to settle for one hour.
A curve fitting program (i.e., Prism, Activity Base, Chemcart) is used to determine the EC50. The Ki value is calculated using the Cheng-Prusoff equation: K i=EC50/(1+(radioligand concentration/Kd)).
In the case of `COc1cccc2c1nc(N)n1nc(CCN3CCn4c(nnc4SC)C3)nc21` [Ex-1, 7-methoxy-2-(2-(3-(methylthio)-5,6-dihydro-[1,2,4]triazolo[4,3-a]pyrazin-7(8H)-yl)ethyl)-[1,2,4]triazolo[1,5-c]quinazolin-5-amine], the pEC50 was 8.40.

In turn, `COc1cccc2c1nc(N)n1nc(CCN3CCn4c(nnc4C(=O)NC(C)(C)C)C3)nc21` [Ex-2, 7-(2-(5-amino-7-methoxy-[1,2,4]triazolo[1,5-c]quinazolin-2-yl)ethyl)-N-tert-butyl-5,6,7,8-tetrahydro-[1,2,4]triazolo[4,3-a]pyrazine-3-carboxamide] had a negative logarithm of the EC50 (pEC50) of 8.54. As to `COc1cccc2c1nc(N)n1nc(CCN3CCn4c(Br)nnc4C3)nc21` [Ex-3, 2-(2-(3-bromo-5,6-dihydro-[1,2,4]triazolo[4,3-a]pyrazin-7(8H)-yl)ethyl)-7-methoxy-[1,2,4]triazolo[1,5-c]quinazolin-5-amine], the pEC50 was 8.47. With `CCOC(=O)c1nnc2n1CCN(CCc1nc3c4cccc(OC)c4nc(N)n3n1)C2` [Ex-4, ethyl 7-(2-(5-amino-7-methoxy-[1,2,4]triazolo[1,5-c]quinazolin-2-yl)ethyl)-5,6,7,8-tetrahydro-[1,2,4]triazolo[4,3-a]pyrazine-3-carboxylate] the figure was 8.34; with `COc1cccc2c1nc(N)n1nc(CCN3Cc4ccc(Cl)nc4C3)nc21` [Ex-5, 2-(2-(2-chloro-5H-pyrrolo[3,4-b]pyridin-6(7H)-yl)ethyl)-7-methoxy-[1,2,4]triazolo[1,5-c]quinazolin-5-amine], 8.33.

Turning to `COc1cccc2c1nc(N)n1nc(CCN3CCc4c(Br)ccnc4C3)nc21` [Ex-6, 2-(2-(4-bromo-5,6-dihydro-1,7-naplithyridin-7(8H)-yl)ethyl)-7-methoxy-[1,2,4]triazolo[1,5-c]quinazolin-5-amine], the pEC50 was 8.23. To `COc1cccc2c1nc(N)n1nc(CCN3CCc4c(cnn4C4CC4)C3)nc21` [Ex-7, 2-(2-(1-cyclopropyl-6,7-dihydro-1H-pyrazolo[4,3-c]pyridin-5(4H)-yl)ethyl)-7-methoxy-[1,2,4]triazolo[1,5-c]iquinazolin-5-amine] belongs 8.85; to `COc1cccc2c1nc(N)n1nc(CCN3CCn4c(cnc4C(C)C)C3)nc21` [Ex-8, 2-(2-(3-isopropyl-5,6-dihydroimidazo[1,5-a]pyrazin-7(8H)-yl)ethyl)-7-methoxy-[1,2,4]triazolo[1,5-c]quinazolin-5-amine], 8.66; to `COc1cccc2c1nc(N)n1nc(CCN3CCc4noc(C(F)(F)F)c4C3)nc21` [Ex-9, 7-methoxy-2-(2-(3-(trifluoromethyl)-6,7-dihydroisoxazolo[4,3-c]pyridin-5(4H)-yl)ethyl)-[1,2,4]triazolo[1,5-c]quinazolin-5-amine], 8.68. To `COc1cccc2c1nc(N)n1nc(CCN3CCn4cc(C(=O)C5CC5)nc4C3)nc21` [Ex-10, (7-(2-(5-amino-7-methoxy[1,2,4]triazolo[1,5-c]quinazolin-2-yl)ethyl)-5,6,7,8-tetrahydroimidazo[1,2-a]pyrazin-2-yl)(cyclopropyl)methanone] belongs 8.92.

The compound `COc1cccc2c1nc(N)n1nc(CCN3CCn4nc(C(F)(F)F)nc4C3)nc21` [Ex-11] showed a pEC50 of 8.57. Compared with the last compound, the pEC50 is 0.35 log units lower. To `COc1cccc2c1nc(N)n1nc(CCN3CCn4nc(C5CC5)nc4C3)nc21` [Ex-12, 2-(2-(2-cyclopropyl-5,6-dihydro-[1,2,4]triazolo[1,5-a]pyrazin-7(8H)-yl)ethyl)-7-methoxy-[1,2,4]triazolo[1,5-c]quinazolin-5-amine] belongs 8.70; to `CCc1ncc2n1CCN(CCc1nc3c4cccc(OC)c4nc(N)n3n1)C2` [Ex-13, 2-(2-(3-ethyl-5,6-dihydroimidazo[1,5-a]pyrazin-7(8H)-yl)ethyl)-7-methoxy-[1,2,4]triazolo[1,5-c]quinazolin-5-amine], 8.66. To `COc1cccc2c1nc(N)n1nc(CCN3Cc4nc(C)sc4C3)nc21` [Ex-14, 7-methoxy-2-(2-(2-methyl-4H-pyrrolo[3,4-d]thiazol-5(6H)-yl)ethyl)-[1,2,4]triazolo[1,5-c]quinazolin-5-amine] belongs 8.82; to `COc1cccc2c1nc(N)n1nc(CCN3CCc4c(sc(C5CC5)c4C#N)C3)nc21` [Ex-15, 6-(2-(5-amino-7-methoxy-[1,2,4]triazolo[1,5-c]quinazolin-2-yl)ethyl)-2-cyc1opropyl-4,5,6,7-tetrahydrothieno[2,3-c]pyridine-3-carbonitri1e], 8.66. With `COc1cccc2c1nc(N)n1nc(CCN3CCc4nc(C(F)(F)F)[nH]c4C3)nc21` [Ex-16, 7-methoxy-2-(2-(2-(trifluoromethyl)-6,7-dihydro-3H-imidazo[4,5-c]pyridin-5(4H)-yl)ethyl)-[1,2,4]triazolo[1,5-c]quinazolin-5-amine] the figure was 8.64; with `COc1cccc2c1nc(N)n1nc(CCN3CCn4c(nnc4C(F)(F)F)C3)nc21` [Ex-17, 7-methoxy-2-(2-(3-(trifluoromethyl)-5,6-dihydro[1,2,4]triazolo[4,3-a]pyrazin-7(8H)-yl)ethyl)-[1,2,4]triazolo[1,5-c]quinazolin-5-amine], 8.02; with `COc1cccc2c1nc(N)n1nc(CCN3Cc4cnc(C(F)(F)F)nc4C3)nc21` [Ex-18, 7-methoxy-2-(2-(2-(trifluoromethyl)-5H-pyrrolo[3,4-d]pyrimidin-6(7H)-yl)ethyl)-[1,2,4]triazolo[1,5-c]quinazolin-5-amine], 7.88. In turn, `COc1cccc2c1nc(N)n1nc(CCN3Cc4cncnc4C3)nc21` [Ex-19, 2-(2-(5H-pyrrolo[3,4-d]pyrimidin-6(7H)-yl)ethyl)-7-methoxy-[1,2,4]triazolo[1,5-c]quinazolin-5-amine] showed a negative logarithm of the EC50 (pEC50) of 8.12. Against the preceding compound, the pEC50 is 0.24 log units higher.

`COc1cccc2c1nc(N)n1nc(CCN3CCCCc4cccnc43)nc21` [Ex-20, 2-(2-(7,8-dihydro-5H-pyrido[2,3-b]azepin-9(6H)-yl)ethyl)-7-methoxy-[1,2,4]triazolo[1,5-c]quinazolin-5-amine] had a pEC50 of 7.89.

Turning to `COc1cccc2c1nc(N)n1nc(CCN3CCc4cccnc43)nc21` [Ex-21, 2-(2-(2,3-dihydro-1H-pyrrolo[2,3-b]pyridin-1-yl)ethyl)-7-methoxy-[1,2,4]triazolo[1,5-c]quinazolin-5-amine], the negative-log EC50 (pEC50) is 7.51.

For the compound `CCc1nnc2n1CCN(CCc1nc3c4cccc(OC)c4nc(N)n3n1)C2` [Ex-22, 2-(2-(3-ethyl-5,6-dihydro-[1,2,4]triazolo[4,3-a]pyrazin-7(8H)-yl)ethyl)-7-methoxy-[1,2,4]triazolo[1,5-c]quinazolin-5-amine], the pEC50 was 8.17. To `COc1cccc2c1nc(N)n1nc(CCN3Cc4cnc(C)nc4C3)nc21` [Ex-23, 7-methoxy-2-(2-(2-methyl-5H-pyrrolo[3,4-d]pyrimidin-6(7H)-yl)-ethyl)-[1,2,4]triazolo[1,5-c]quinazolin-5-amine] belongs 8.36 and 8.18. With `COc1cccc2c1nc(N)n1nc(CCN3Cc4ccccc4C3)nc21` [Ex-24, 2-(2-(isoindolin-2-yl)ethyl)-7-methoxy-[1,2,4]triazolo[1,5-c]quinazolin-5-amine] the figure was 7.95. To `COc1cccc2c1nc(N)n1nc(CCN3CCc4sc(C)nc4C3)nc21` [Ex-25, 7-methoxy-2-(2-(2-methyl-6,7-dihydrothiazolo[4,5-c]pyridin-5(4H)-yl)ethyl)-[1,2,4]triazolo[1,5-c]quinazolin-5-amine] belongs 9.05; to `COc1cccc2c1nc(N)n1nc(CCN3CCc4sc(C(F)(F)F)nc4C3)nc21` [Ex-26, 7-methoxy-2-(2-(2-(trifluoromethyl)-6,7-dihydrothiazolo[4,5-c]pyridin-5(4H)-yl)ethyl)-[1,2,4]triazolo[1,5-c]quinazolin-5-amine], 9.30; to `COc1cccc2c1nc(N)n1nc(CCN3CCc4oc(C)nc4C3)nc21` [Ex-27, 7-methoxy-2-(2-(2-methyl-6,7-dihydrooxazolo[4,5-c]pyridin-5(4H)-yl)ethyl)-[1,2,4]triazolo[1,5-c]quinazolin-5-amine], 8.80.
